# Source: patent US10590114B2, “Compounds, compositions, and methods” (Denali Therapeutics Inc., priority 2016, dated 2020)
# Assays:
# MDR1 (P-glycoprotein) = MDR1 (P-glycoprotein) (Homo sapiens (Human), UniProt P08183); experiment: MDR1-MDCK permeability, bidirectional assay; assay type: in vitro ADME; conditions: MDR1-MDCK cells, efflux ratio, 1 μM, HBSS pH 7.4
# Experimental: The blood brain barrier (BBB) separates circulating blood from the extracellular fluid of the central nervous system (CNS). The passive membrane permeability (Papp) and MDR1 (P-glycoprotein) substrate efflux potential were determined using the MDR1-MDCK cell line as an in vitro model of the effective permeability of a compound through the BBB. A bidirectional assay was conducted in pre-plated MDR1-MDCK cells using a 12 or 96-well plate in the absence or presence of MDR1 inhibitor (GF120918 or Valspodar). Assays were run in duplicate in transport buffer (HBSS, pH 7.4) for 90 or 120 min (minutes) at 37° C., using a test article concentration of 1 μM. […] Papp (apparent permeability expressed in cm/sec [centimeter/second]) values were calculated according to the following equation:
# [formula] where VR is the solution volume in the receiver chamber (apical or basolateral side), Area is the surface area for the insert membrane), Time is incubation time expressed in seconds, CR is the peak area ratio (analyte/IS) in the receiver chamber, CA is the average of the initial and final concentrations in the donor chamber, and CO is the initial peak area ratio in the donor chamber. Papp was determined in both the apical to basolateral (A→B) and basolateral to apical (B→A) directions. […]
# [1] = Metabolic stability in human liver microsomes; assay type: in vitro ADME; conditions: Table 5; 1 μM compound, 0.5 mg/mL protein, projected human hepatic clearance, well-stirred model
# Experimental: Metabolic stability of compounds was evaluated in human liver microsomes (from Corning or XenoTech, LLC) using a 96-well plate assay format. Compounds were incubated at 37° C. at 1 μM final concentration in the microsomal matrix (0.5 mg/mL total protein) in the presence or absence of NADPH cofactor. An NADPH regenerating system, comprised of NADP, MgCl2, isocitric acid, and isocitrate dehydrogenase, was used in the assay. Enzymatic reactions were conducted for 0, 5, 10, 20, 30, or 60 min before termination by addition of acetonitrile containing tolbutamide and labetalol internal standards (100 ng/mL). After shaking for 10 min, plates were subjected to centrifugation (4000 rpm at 4° C.) for 20 min and supernatants were mixed 1:3 with HPLC grade water. Samples were analyzed by LC-MS/MS using appropriate MRM transitions for each analyte and internal standard (IS). Analyte/IS peak area ratios were used to determine percent compound remaining at each time point. Intrinsic clearance (Clint; expressed as mL·min^−1·mg^−1) was calculated from the first order elimination constant (k, min^−1) of test article decay and the volume of the incubation. These values were scaled to intrinsic organ clearance (Clint) using human specific scaling factors (48.8 mg microsomal protein per g liver; 25.7 g liver per kg body weight). […]
# Chain of MDR1 (P-glycoprotein) (P08183 whole entry): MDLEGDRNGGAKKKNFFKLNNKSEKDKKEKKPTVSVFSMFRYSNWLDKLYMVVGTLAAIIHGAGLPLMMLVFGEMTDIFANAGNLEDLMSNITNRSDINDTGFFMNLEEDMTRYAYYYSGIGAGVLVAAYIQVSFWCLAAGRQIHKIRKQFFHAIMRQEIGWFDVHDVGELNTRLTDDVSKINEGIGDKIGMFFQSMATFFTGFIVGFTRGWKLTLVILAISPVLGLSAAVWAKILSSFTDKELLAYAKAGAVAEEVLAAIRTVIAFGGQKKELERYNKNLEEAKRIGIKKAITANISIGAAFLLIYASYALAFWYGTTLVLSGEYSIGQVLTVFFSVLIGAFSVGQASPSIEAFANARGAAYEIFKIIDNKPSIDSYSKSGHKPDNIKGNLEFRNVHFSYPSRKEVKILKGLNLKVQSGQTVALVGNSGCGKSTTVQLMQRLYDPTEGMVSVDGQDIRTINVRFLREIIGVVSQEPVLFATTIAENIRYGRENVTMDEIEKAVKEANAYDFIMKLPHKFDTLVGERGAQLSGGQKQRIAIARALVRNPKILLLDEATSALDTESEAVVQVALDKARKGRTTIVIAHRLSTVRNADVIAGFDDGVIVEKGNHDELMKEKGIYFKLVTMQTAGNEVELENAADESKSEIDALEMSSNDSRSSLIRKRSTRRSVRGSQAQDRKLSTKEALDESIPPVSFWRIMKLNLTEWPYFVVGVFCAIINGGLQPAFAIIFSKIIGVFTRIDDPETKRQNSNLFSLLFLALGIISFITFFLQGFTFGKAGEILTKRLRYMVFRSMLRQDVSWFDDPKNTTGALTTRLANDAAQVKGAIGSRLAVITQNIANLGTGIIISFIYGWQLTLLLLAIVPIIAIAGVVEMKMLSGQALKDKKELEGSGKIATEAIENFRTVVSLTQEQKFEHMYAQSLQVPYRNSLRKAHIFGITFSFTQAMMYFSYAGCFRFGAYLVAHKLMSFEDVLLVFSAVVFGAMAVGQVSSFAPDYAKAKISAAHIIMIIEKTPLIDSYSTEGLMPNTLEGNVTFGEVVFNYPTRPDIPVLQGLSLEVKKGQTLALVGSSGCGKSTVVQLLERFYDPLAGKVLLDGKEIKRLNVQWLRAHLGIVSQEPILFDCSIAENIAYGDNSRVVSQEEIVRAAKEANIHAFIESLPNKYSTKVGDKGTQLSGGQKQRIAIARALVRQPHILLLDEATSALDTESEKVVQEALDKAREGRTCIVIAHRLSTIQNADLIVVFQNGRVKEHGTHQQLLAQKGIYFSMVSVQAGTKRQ
Compound,MDR1 ER (MDR1 (P-glycoprotein)),Human liver microsomes CLhep [1] [mL/min/kg]
"CCNc1nc(Nc2cc(C3(C)CCn4ncnc43)nn2C2CC2)ncc1C(F)(F)F (single isomer, unassigned) [Compound 172]",42,
CNc1nc(Nc2cn(C(C)(C)c3ncn(C)n3)nc2C)ncc1C(F)(F)F [Compound 218],,0
